From PMC8448514, “Exploratory comparisons between different anti-mitotics in clinically-used drug combination in triple negative breast cancer” (Oncotarget, 2021)

How the values were obtained:
breast cancer = settings: cited from earlier work
[1] = system: intratumoral necrotic area of MDA-MB-231 tumor; experiment: Histopathological analysis of tumor sections (H&E); type: in vivo, mice; settings: monotherapy; 4bt, 4bc 80 mg/Kg, paclitaxel 20 mg/Kg; vs vehicle
Protocol: Tumors and lungs were fixed in 10% buffered formalin and processed for paraffin embedding. Processed material was sectioned at 5 μm, and sections were stained with hematoxylin & eosin (HE) for analysis under the light microscope Axiovert (Zeiss, Germany). Tumor and lung sections were analyzed for general histopathological assessment.

[2] = system: Balb-c nude mice bearing breast tumor; experiment: White blood cell and platelet analysis (complete blood count); type: in vivo; settings: 20 mg/kg i.p., monotherapy, mean ± SEM
tumor cell apoptosis = experiment: TUNEL assay for apoptosis in tumor sections; type: in vivo, mice; settings: paclitaxel 20 mg/Kg; AC-T; AC-4bt; vs vehicle
Protocol: The level of apoptosis in tumor sections was determined by TUNEL assay. TUNEL staining was performed on paraffin-embedded sections using Click-iT™ TUNEL Colorimetric IHC Detection Kit (Invitrogen, Carlsbad – USA) according to the manufacturer’s protocol. Briefly, the sections were dewaxed, rehydrated, and immersed in 4% paraformaldehyde fixative solution for 15 minutes. They were then washed and incubated with proteinase K for 20 min at room temperature. The slides were washed with PBS for 5 minutes, and immersed in 4% paraformaldehyde fixative solution again for 5 minutes at room temperature. Slides were then washed with PBS (twice, for 5 minutes) and rinsed with deionized water. Samples were incubated in TdT Reaction Buffer for 10 minutes at 37°C. The TdT reaction buffer was gently removed using paper towels and slides were incubated with TdT Reaction Mixture for another hour at 37°C in a humidified chamber. After being rinsed with PBS, slides were immersed in 2X SSC for 15 minutes, in order to fully quench TdT reaction. Slides were washed with 1X Click-iT™ TUNEL Colorimetric Wash solution and incubated with the Click-iT™ TUNEL Colorimetric Reaction cocktail for 30 minutes at 37°C, protected from light. […]
After acquisition, images were submitted to a semi-quantitative analysis using the IHC Profiler plug-in (National Institute of Health) from ImageJ software. […]

ALDH1-A1 = ALDH1-A1 immunohistochemistry of tumor sections; type: in vivo, mice; settings: 4bt, 4bc 80 mg/Kg, paclitaxel 20 mg/Kg; vs vehicle
Excerpt: After acquisition, images were submitted to a semi-quantitative analysis using the IHC Profiler plug-in (National Institute of Health) from ImageJ software. Images were submitted to a deconvolution process, and histogram profiles, corresponding to pixel intensity as well as a stain-positivity percentage value derived from a scoring system based on optical density, were automatically generated. Areas rated as highly positive or positive were considered for analysis.
In order to evaluate the role of KIF-11 inhibitors in some key features for tumor progression and development, we analyzed tumor sections for the levels of KIF-11, ALDH1-A1 and Ki67 expression by immunofluorescence (IF) or immunohistochemistry. Immunostaining was performed on 5 μm sections of formalin-fixed paraffin-embedded (FFPE) tissue. […]
(§1) Slides were then washed in PBS/0.025% Triton, incubated at room temperature in the dark with (1:500) Alexa Fluor 488-Anti-rabbit secondary antibody, for KIF-11 and Ki67, or (1:250) Goat anti-rabbit HRP, for ALDH1-A1 for 1 hour, washed three times with PBS. […] Slides for ALDH1-A1 analysis were counterstained with hematoxylin and analyzed under light microscope Axiovert (Zeiss, Germany).
For ALDH1-A1 quantification of positive areas, IHC Profiler plug-in was used as previously described for TUNEL analysis.

KIF11 = experiment: Intratumoral KIF11 expression by immunofluorescence; type: in vivo, mice; settings: 4bt, 4bc 80 mg/Kg; paclitaxel 20 mg/Kg; AC-T; AC-4bt; vs vehicle
Protocol: In order to evaluate the role of KIF-11 inhibitors in some key features for tumor progression and development, we analyzed tumor sections for the levels of KIF-11, ALDH1-A1 and Ki67 expression by immunofluorescence (IF) or immunohistochemistry. Immunostaining was performed on 5 μm sections of formalin-fixed paraffin-embedded (FFPE) tissue. Tissue slides were baked, deparaffinized in xylene and passed through graded alcohols for rehydration. Antigen retrieval was achieved submitting samples to a 10 mM Trisodium Citrate solution, pH 6.0 in a steam pressure cooker at 100°C for 10 minutes. Slides were then left immersed in the Trisodium Citrate solution at room temperature for 20 minutes before being washed with PBS/0.025% Triton. The area around each section was delimited by a hydrophobic liquid blocker (PAP-Pen) in order to assure homogeneous distribution of reagents and antibodies.
as §1

[3] = system: breast cancer induced by MDA-MB-231; experiment: Tumor volume monitoring in xenograft model; type: in vivo, mice; settings: used in combination with doxorubicin 10 mg/Kg and cyclophosphamide 100 mg/Kg; 4bt 80 mg/Kg, paclitaxel 10 mg/Kg
Protocol: Mice were anesthetized with ketamine (80 mg/kg of body weight) and xylazine (20 mg/kg of body weight) solution. 2 × 10^6 MDA-MB-231 cells in PBS/20% type I Collagen (100 μL) were inoculated in the fourth right mammary fat pad. After tumor establishment, about 5 weeks after inoculation, mice were randomized into experimental groups (n = 5 per group), and treatment started.

Balb-c/nude mice = experiment: Behavioral observation (motor capacity, peripheral neuropathy); type: in vivo; settings: a few minutes after administration; paclitaxel 10 or 20 mg/Kg, 4bt 80 mg/Kg; monotherapy and drug combination
Protocol: (§2) Animals of all experimental groups were monitored with regards to their weight, behavior and clinical aspects. Animals body weight were assessed prior the beginning of treatment and twice a week throughout the experiment period as an important indicator of toxicity.

[4] = system: Balb-c nude mice bearing breast tumor; experiment: Biochemical analysis of blood (liver and kidney toxicity); type: in vivo; settings: 20 mg/kg i.p., monotherapy
[5] = Body weight and clinical monitoring
Protocol: as §2
All treatments were administered intraperitoneally (i.p) (Figure 7).
Animal weight was also monitored with help of a digital scale twice a week.

[6] = system: Balb-c nude mice bearing breast tumor; experiment: Red blood cell analysis (complete blood count); type: in vivo; settings: 20 mg/kg i.p., monotherapy; mean ± SEM

Cc1ccc(C(=O)N(CCCN)[C@@H](c2nc3cc(Cl)ccc3c(=O)n2Cc2ccccc2)C(C)C)cc1 [Ispinesib]
Neurotoxicity / tolerability (breast cancer; clinical): no indication of neurotoxicity | Antitumor activity in phase I trial (breast cancer; phase I trial in breast cancer): relevant antitumor activity and stabilization of the disease

CC(=O)O[C@H]1C(=O)[C@@]2(C)[C@H]([C@H](OC(=O)c3ccccc3)[C@]3(O)C[C@H](OC(=O)[C@H](O)[C@@H](NC(=O)c4ccccc4)c4ccccc4)C(C)=C1C3(C)C)[C@]1(OC(C)=O)CO[C@@H]1C[C@@H]2O [Paclitaxel, paclitaxel]
Intratumoral necrotic area [1]: reduction in the size of necrotic area | Basophils (%) [2]: 2 ± 1.25% | Basophils (Abs) [2]: 42.79 ± 22.69 | Eosinophils (%) [2]: 0.00% | Eosinophils (Abs) [2]: 0.00 | Lymphocytes (%) [2]: 78.63 ± 2.36% | Lymphocytes (Abs) [2]: 1682.24 ± 602.57 | MPV (mean platelet volume) [2]: 7.07 ± 0.12 fL | Monocytes (%) [2]: 4.79 ± 3.74% | Monocytes (Abs) [2]: 102.51 ± 65.75 | Neutrophils (%) [2]: 12.07 ± 5.10% | Neutrophils (Abs) [2]: 258.30 ± 103.76 | Platelets [2]: 1070.01 ± 37.28 10^3/mm^3 | WBC (white blood cells) [2]: 2139.39 ± 684.75 | WBC (white blood cells) ([2]; listed as paclitaxel): 2139.39 ± 684.75 | TUNEL positive area staining (apoptotic activity) (tumor cell apoptosis): substantially increase positive area staining | ALDH1-A1 expression change (ALDH1-A1): didn’t cause significant changes in ALDH1-A1 expression | Intratumoral KIF11 expression (KIF11): didn’t cause any change on KIF11 levels | Tumor volume [3]: significantly decreasing the tumor volume | Motor capacity / behavioral changes (Balb-c/nude mice): reduced motor capacity | Creatinine [4]: < 0,2 mg/dL | ALP (alkaline phosphatase) ([4]; mean ± SEM): 86.50 ± 10.5 U/L | ALT (alanine transaminase) ([4]; mean ± SEM): 21.50 ± 1.50 UI/L | AST (aspartate aminotransferase) ([4]; mean ± SEM): 98.50 ± 21.50 UI/L | GGT (gamma-glutamyl transferase) ([4]; mean ± SEM): < 1 U/L | LDH (lactate dehydrogenase) ([4]; mean ± SEM): 464.50 ± 50.5 U/L | Urea ([4]; mean ± SEM): 59.00 ± 2.00 mg/dL | Body weight change ([5]; cycles of paclitaxel 10 mg/Kg or 4bt 80 mg/Kg after AC): did not cause any further reduction | Body weight change ([5]; monotherapy, 4bt and 4bc 80 mg/Kg, PTX 20 mg/Kg, 1 week after the beginning of treatment, no significant change afterwards): weight reduction | Hematocrit [6]: 42.56 ± 0.62 % | Hemoglobin [6]: 12.80 ± 0.14 g/dL | MCH (mean corpuscular hemoglobin) [6]: 15.73 ± 0.05 pg | MCHC (mean corpuscular hemoglobin concentration) [6]: 30.07 ± 0.12 g/dL | MCV (mean corpuscular volume) [6]: 52.23 ± 0.42 fL | RDW (red cell distribution width) [6]: 22.85 ± 0.98 % | Red cells [6]: 8.15 ± 0.08 10^6/mm^3
